Assay results taken from publication PMC12190659, “A Near-Infrared Fluorescent Probe for Specific Imaging of Lymph Node Metastases in Ovarian Cancer via Active Targeting of the Gonadotropin-Releasing Hormone Receptor” (Biomolecules, 2025).
“Also recorded” adds a separate entry of the source.

Assays:
[1] = test system: lymphatic metastases in early-stage ovarian cancer; set-up: method as in PMID 38006759; conditions: compared with systematic lymphadenectomy; cited from earlier work
Text: Lymph node metastases are commonly observed in advanced ovarian cancer and are associated with a poor survival rate. Systematic lymphadenectomy seems necessary to achieve complete tumor reduction. […] In a prospectively randomized, controlled trial of lymphadenectomy in patients with primary ovarian cancer (FIGO stage IIB through IV) with macroscopically complete resection and clinically negative lymph nodes (LION trial), systematic pelvic and p ...

[2] = test system: folate receptor alpha; conditions: cited from earlier work
Text: Real-time guidance provided by intraoperative fluorescence imaging helps improve the resection rate of tumors. Over the past two decades, researchers have attempted to develop tumor-specific fluorophores for intraoperatively detecting ovarian cancer. Pafolacianine (OTL38), a fluorescent tracer that targets folate receptor alpha, is the first FDA-approved agent for fluorescence-guided ovarian cancer surgery. In a phase III study (NCT03180307), additional cancer lesions were identified in 33% of patients with known or suspected ovarian cancer who were scheduled to undergo cytored ...

[3] = UV-visible absorption and fluorescence emission spectra; assay type: physicochemical; conditions: DMSO solution
Description: The probe GnRHa-PEG-Rh760 was synthesized as shown in the scheme in Figure 1A. The NIR fluorophore Rh760 and its derivatives Rh760-PAZ and Rh760-GA were synthesized as previously reported. All probes were synthesized by Guoping Pharmaceutical (Hefei, China). Briefly, the sequence of the GnRHa peptide (D-2-Nal-D-4-Cl-Phe-D-3-Pal-Ser-Tyr-D-Cit-Leu-Arg-Pro-D-Ala-NH2) was prepared via the standard Fmoc solid-phase peptide synthesis method. After peptide chain coupling, piperidine was added, and the mixture was allowed to react for 20 min to remove Fmoc. Then, Fmoc-PEG2000-COOH and Rh760 were added in sequence and allowed to react until the resin test was colorless. The resin was washed with methanol and then shaken for 2 h with cutting fluid. The resulting reaction mixture was precipitated with ice-cold ether, yielding a blue–green solid. PEG-Rh760 without GnRHa peptide modification was synthesized as the control. The final products were evaluated by mass spectrometry (MS). The UV–visible absorption spectra were measured with a LAMBDA 750 spectrometer (PerkinElmer, Waltham, USA), and the fluorescence emission spectra were measured with a QuantaMaster 40 fluorospectrometer in DMSO solution.

[4] = test system: subcutaneous A2780 (GnRHR-positive) ovarian cancer; experiment: In vivo NIR fluorescence imaging, subcutaneous xenograft model; set-up: species or system BALB/c nude mice; conditions: 2.0 mg/kg, tail vein, n = 3
Description: (§1) Mouse models with subcutaneous xenografts: A total of 5 × 10^6 A2780 cells were subcutaneously injected into the flanks of the mice. The tumors were allowed to grow until their diameter reached approximately 5 mm before treatment.
(§2) The tumor-bearing mice were injected with GnRHa-PEG-Rh760 at a dose of 2.0 mg/kg body weight (n = 3). PEG-Rh760 was used as a non-targeted control probe. The probes were formulated using phosphate buffered saline (PBS) solutions with a pH of 7.4. For mice with subcutaneous xenografts and lymph node metastasis, the probe was administered via tail vein injection. For mice with peritoneal metastasis, the probe was injected intraperitoneally into the lower right abdominal region. In vivo NIR fluorescence imaging (Ex/Em = 740 nm/790 nm) was performed at different time points post-injection via the IVIS Lumina K Imaging system (PerkinElmer, Waltham, USA). Moreover, tumors, lymph nodes, and major organs were immediately dissected from sacrificed mice and imaged under NIR fluorescence. The fluorescence signals were quantified as the average radiant efficiency ([p/s/cm^2/sr]/[μW/cm^2]) via Living Image software (version 4.5, PerkinElmer, Waltham, USA).

[5] = test system: subcutaneous A2780 ovarian cancer; experiment: Ex vivo fluorescence biodistribution, subcutaneous xenograft model; assay type: in vivo, BALB/c nude mice
Description: as §1, §2
Figure S1 Mass spectra of GnRHa-PEG-Rh760 (A) and PEG-Rh760 (B).
Figure S2 Biodistribution of GnRHa-PEG-Rh760 in mice bearing subcutaneous A2780 ovarian tumors. The mice were injected with GnRHa-PEG-Rh760 via the tail vein and monitored for 120 h. The fluorescence intensities of the ex vivo tumors and organs were measured (n=3). […]

[6] = test system: peritoneal metastatic A2780-luciferase ovarian cancer; experiment: In vivo and ex vivo NIR fluorescence imaging, peritoneal metastasis model; set-up: species or system BALB/c nude mice; conditions: 2.0 mg/kg, intraperitoneal injection, n = 3
Description: Mouse models with peritoneal metastasis: A total of 1 × 10^7 A2780-luciferase cells were injected into the abdominal cavities of the mice. The tumors were allowed to grow for 2 weeks and monitored via bioluminescence imaging using the IVIS Lumina K Imaging system (PerkinElmer, Waltham, USA).
as §2, with “For mice with peritoneal metastasis, the probe was injected intraperitoneally into the lower right abdominal region.” left out
To verify the specificity of the NIR fluorescence imaging of GnRHa-PEG-Rh760, bioluminescence imaging of A2780-luciferase and ES-2-luciferase tumor-bearing mice was performed via the IVIS Lumina K Imaging system (PerkinElmer, Waltham, USA). […]

[7] = test system: lymph node metastases of ES-2-luciferase ovarian cancer; experiment: In vivo and ex vivo NIR fluorescence imaging, lymph node metastasis model; set-up: species or system BALB/c nude mice; conditions: 2.0 mg/kg, tail vein
Description: Mouse models with lymph node metastasis: A total of 2 × 10^6 ES-2-luciferase cells were injected into the unilateral footpads of the mice. The lymph node metastases were monitored via bioluminescence imaging. Spontaneous metastases to popliteal (PO) and inguinal (IN) lymph nodes as well as occasional metastases to iliac (IL) and sciatic (SC) lymph nodes were observed after 2–3 weeks of primary tumor growth. The lymph node tissues were confirmed by histological examination and immunohistochemical staining for CK7.
as §2
To verify the specificity of the NIR fluorescence imaging of GnRHa-PEG-Rh760, bioluminescence imaging of A2780-luciferase and ES-2-luciferase tumor-bearing mice was performed via the IVIS Lumina K Imaging system (PerkinElmer, Waltham, USA). The mice were injected with 150 mg/kg body weight D-luciferin (YEASEN Biotech, Shanghai, China) and imaged at 15 min post-injection. Moreover, tumors, lymph nodes, and major organs were immediately dissected from sacrificed mice and imaged. Bioluminescence signals were quantified as the total flux (p/s) via Living Image software (version 4.5, PerkinElmer, Waltham, USA).

[8] = target: T1, GnRHR (Homo sapiens, UniProt P30968); experiment: Confocal fluorescence microscopy of frozen tissue sections; assay type: in vivo, BALB/c nude mice
T1 construct: mouse model bearing subcutaneous A2780 (GnRHR-positive) ovarian cancer; endogenous in cells; host or cells: A2780 and ES-2 human ovarian cancer cells grown as xenografts or lymph node metastases in BALB/c nude mice; frozen tissue sections
T1 sequence (P30968 1-328): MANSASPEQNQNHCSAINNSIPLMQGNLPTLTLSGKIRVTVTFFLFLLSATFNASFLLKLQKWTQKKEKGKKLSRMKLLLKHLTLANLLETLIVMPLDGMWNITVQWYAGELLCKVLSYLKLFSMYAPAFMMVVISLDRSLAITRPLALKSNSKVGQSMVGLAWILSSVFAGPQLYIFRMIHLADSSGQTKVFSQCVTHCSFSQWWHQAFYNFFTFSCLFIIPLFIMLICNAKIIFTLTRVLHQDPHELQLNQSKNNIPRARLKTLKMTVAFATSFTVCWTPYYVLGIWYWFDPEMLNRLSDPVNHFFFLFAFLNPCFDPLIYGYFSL
Text: To examine the binding of probes to ovarian cancer tissues, tumors, lymph nodes and skeletal muscle were obtained from sacrificed mice and then embedded in frozen section embedding medium. The frozen tissues were sectioned, fixed and mounted. Nuclei were labeled with DAPI. Fluorescence images were captured via confocal fluorescence microscopy (TCS SP5, Leica, Wetzlar, Germany).

[9] = In vivo safety evaluation; set-up: species or system mice; conditions: 2.0 mg/kg, tail vein, n = 3
Description: The mice were injected with GnRHa-PEG-Rh760 at a dose of 2.0 mg/kg body weight via the tail vein (n = 3). PEG-Rh760 and vehicle were used as controls. The body weights of the mice were continuously monitored. The mice were sacrificed after 6 days. Routine blood tests were conducted to assess red blood cells (RBCs), white blood cells (WBCs), and platelets (PLTs). Blood biochemistry tests were conducted to assess alanine transaminase (ALT), aspartate transaminase (AST), blood urea nitrogen (BUN), and creatinine (CREA) levels. Tissue sections from organs, including the heart, lung, liver, spleen, kidney, and muscle, were stained with hematoxylin and eosin (H&E) for histopathological analysis.

Compound: CC1(C)C(/C=C/C=C/C=C/C=C2\N(CCCCS(=O)(=O)O)c3ccc4ccccc4c3C2(C)C)=[N+](CCCCS(=O)(=O)[O-])c2ccc3ccccc3c21 [indocyanine green]
- detection rate of sentinel lymph node mapping [1]: low detection rate

Compound: CC1(C)C(/C=C/C2=C(Oc3ccc(C[C@H](NC(=O)c4ccc(NCc5cnc6nc(N)[nH]c(=O)c6n5)cc4)C(=O)[O-])cc3)C(=C/C=C3\N(CCCCS(=O)(=O)[O-])c4ccc(S(=O)(=O)[O-])cc4C3(C)C)/CCC2)=[N+](CCCCS(=O)(=O)[O-])c2ccc(S(=O)(=O)[O-])cc21.[H+].[H+].[H+].[H+] [pafolacianine, Pafolacianine]
- false-positive lymph nodes ([2]; phase I to III studies): false-positive lymph nodes were also observed
- patients in whom additional cancer lesions were identified ([2]; phase III study NCT03180307, versus white light assessment and palpation): 33%

Compound: D-2-Nal-D-4-Cl-Phe-D-3-Pal-Ser-Tyr-D-Cit-Leu-Arg-Pro-D-Ala-NH2 [GnRHa-PEG-Rh760, GnRHR-targeted NIR fluorescent probe: GnRH analog peptide conjugated with Rh760 fluorophore and polyethylene glycol (PEG)]
- maximum absorption peak [3]: 780 nm
- maximum emission peak [3]: 805 nm
- NIR fluorescence in subcutaneous tumors ([4]; Ex/Em 740/790 nm): High fluorescence intensity
- duration of stronger fluorescence signals in tumors post-injection [4]: up to 72 h
- NIR fluorescence in normal ovarian tissues ([5]; ex vivo): weak NIR fluorescence
- biodistribution (organs of accumulation) ([5]; ex vivo fluorescence of tumors and organs, 2.0 mg/kg, tail vein, monitored for 120 h, n = 3): mainly accumulated in the tumor and liver tissues; also recorded: predominant accumulation in the tumor and liver, followed by the kidneys
- clearance of the probe ([5]; ex vivo fluorescence of tumors and organs, 2.0 mg/kg, tail vein, n = 3): gradually cleared at 96 h post-injection
- tumor-to-background (skeletal muscle) fluorescence ratio ([5]; ex vivo, 2.0 mg/kg, tail vein, n = 3): high ratio of tumor-to-background
- NIR fluorescence signals in peritoneal metastases [6]: high fluorescent signals
- NIR fluorescence in metastatic lymph nodes ([7]; n = 3): well identified and detected by NIR fluorescence
- NIR fluorescence in normal lymph nodes ([7]; n = 3): no NIR fluorescence signals were detected
- average fluorescence intensity in metastatic versus normal lymph nodes ([7]; n = 3, p < 0.05): significantly greater
- binding in tumor sections (versus skeletal muscle) ([8]; frozen sections from subcutaneous A2780 tumor-bearing mice injected with the probe): specific binding
- binding in metastatic lymph node sections ([8]; frozen sections of lymph nodes from ES-2-luciferase model): specific binding
- body weight change versus control group ([9]; 6 days): No significant body weight loss
- hematologic analysis: RBC, WBC, PLT, ALT, AST, BUN, CREA levels ([9]; after 6 days): no significant changes
- histopathology (H&E) of heart, lung, liver, spleen, kidney, muscle ([9]; after 6 days): No notable tissue injury
